Experimental data taken from patent publication EP0437336B1, “Biophosphoryl hydrazines and their use as pesticides” (priority 1990, dated 1991).
In brackets after ≈: the same amount, converted by molar mass. Like-named read-outs stand apart in the source and are kept apart here.

Legend:
Two-Spotted Spider Mite = assay: Biological Method D: Foliar Insecticidal Activity Test, mite test; type: in vivo, Tetranychus urticae; parameters: key to LC50 TSM: I = inactive at concentration listed; conditions: Method D foliar test, Two-Spotted Spider Mite; for LC50: Tetranychus urticae, read-out: LC50 TSM
Experimental: (§1) Biological Method D: Foliar Insecticidal Activity Test
(§2) In evaluating the foliar insecticidal activity of the compounds of this invention against insects and mites, the following test procedures were employed.
(§3) Not all compounds were tested at each of the several concentrations stated above. Test concentrations of a compound were selected as those most likely to differentiate dose response of a particular compound toward a particular test insect.
(§4) Initial evaluations were made on one or more of the following pests:
For the mite test, infested bean (Phaseolus limensis var. Woods Prolific) leaf discs [3.18 cm (1.25") in diameter] containing about 50 mites were placed in a Petri dish lid on a moistened piece of cotton. The leaves were then sprayed to thorough wetness with the test solution using a rotating turntable, held for twenty-four hours and then the percentage killed was determined.
(§5) The mortalities obtained in this manner were plotted on logarithmic probability paper.
(§6) The rotating turntable consists of a fixed, continuously operating spray nozzle under which targets are rotated at a fixed speed and distance. If the target is a Petri dish (such as for the bean beetle, armyworm, mite, or aphid tests), the distance from the nozzle is 38.1 cm (15 inches). If the target is a Mason jar (such as for the boll weevil test), the distance from the nozzle is 17.8 cm (7 inches). The nozzle is located 8 inches from the rotating shaft. The targets on individual platforms revolve around the shaft at 1 revolution per 20 seconds but only a brief portion of this time occurs in the spray path. Targets pass only once under the nozzle and then are removed to drying hoods.
(§7) The nozzle used is a 1/4 JCO Spraying Systems (Wheaton, Illinois) air atomizing nozzle equipped with a No. 2850 fluid cap and a No. 70 air cap. At the 68.95 x 10³ Pa gauge (10 psig) air pressure used and with liquid siphon feed, 1.89 ℓ/hr [0.5 GPH (gallons per hour)] are delivered in a round spray pattern with a 21 degree spray angle. Targets are misted with spray droplets to the point that the droplets coalesce to form a uniform thin film insufficient to drown test organisms.

Green Peach Aphid = assay: Biological Method D: Foliar Insecticidal Activity Test, aphid test; type: in vivo, Myzus persicae; parameters: key: I = inactive at concentration listed
Experimental: as §1, §2, §3, §4
For the aphid test, infested broccoli (Brassica oleracea italica var. DiCicco) leaves containing about 50 aphids were placed in a Petri dish lid on a moistened piece of cotton. The leaves were then sprayed to thorough wetness with the test solution using a rotating turntable, held for twenty-four hours and then the percentage killed was determined.
as §5, §6, §7

Southern Armyworm = assay: Biological Method D: Foliar Insecticidal Activity Test, Southern Armyworm test; type: in vivo, Spodoptera eridania; parameters: key: I = inactive at concentration listed
Experimental: as §1, §2, §3, §4
(§8) For the Mexican Bean Beetle and Southern armyworm tests, individual lima bean (Phaseolus limeniss var. Woods' Prolific) leaves were placed on moistened pieces of filter paper in Petri dishes. The leaves were then sprayed with the test solution using a rotating turntable and allowed to dry. The dishes were then infested with 10 third instar larvae of either the Mexican Been Beetle or the Southern Armyworm. The dishes were then covered. Percent mortality was determined for each species and spray concentration at 48 and 96 hours after treatment.
as §5, §6, §7

Boll Weevil [1] = assay: Biological Method D: Foliar Insecticidal Activity Test, boll weevil test; type: in vivo, Anthonomous grandis; parameters: key: I = inactive at concentration listed
Experimental: as §1, §2, §3, §4
(§9) For the boll weevil test, 10 adult weevils were placed in a 0.24 ℓ (0.5 pint) glass Mason jar containing a small cube of apple. The weevils were confined to the jar by fiberglass screen mesh secured by a screw-type rim cap. The jars were then sprayed with the test solution using a rotating turntable; directing the spray through the mesh into the jar. The percentage killed was determined after forty-eight and ninety six hours.
as §5, §6, §7

[2] = tested on: southern corn rootworm, Diabrotica undecimpunctata howardi; assay: Biological Method A: Corn Rootworm Screening Test (treated non-aggressive soil); conditions: soil concentration giving 90% mortality, 10 days at 27°C
Mexican Bean Beetle = assay: Biological Method D: Foliar Insecticidal Activity Test, Mexican Bean Beetle test; type: in vivo, Epilachna varivestis; parameters: key to LC50 BB 96 hrs / LC50 BB 48 hrs.: I = inactive at concentration listed; conditions: Mexican Bean Beetle; for LC50: Epilachna varivestis
Experimental: as §1, §2, §3, §4, §8, §5, §6, §7

Boll Weevil [3] = assay: Biological Method D: Foliar Insecticidal Activity Test, boll weevil test; type: in vivo, Anthonomous grandis; conditions: Method D foliar test, Boll Weevil
Experimental: as §1, §2, §3, §4, §9, §5, §6, §7

[4] = tested on: southern corn rootworm, Diabrotica undecimpunctata howardi; conditions: at-planting soil application
[5] = Method D foliar test, 48 hrs, read-out: LC50 BB 48 hrs.
[6] = Method D foliar test, 96 hrs, read-out: LC50 BB 96 hrs

Row | SMILES | LC50 TSM (Two-Spotted Spider Mite) | LC50 GPA (Green Peach Aphid) | LC50 AW 48 hrs (Southern Armyworm) | LC50 AW 96 hrs (Southern Armyworm) | LC50 BW 48 hrs (Boll Weevil [1]) | LC50 BW 96 hrs (Boll Weevil [1]) | primary nonagressive Method A crw LC90 [2] | LC50 (Mexican Bean Beetle; [5]) [µg/mL] | LC50 (Mexican Bean Beetle; [6]) [µg/mL] | LC50 (Two-Spotted Spider Mite) [µg/mL] | LC50 BW 96 hrs (Boll Weevil [3]) [ppm] | secondary aggressive Method C crw LC50 ([4]; rated 17 days post-infestation) [kg/ha] | secondary aggressive Method C crw LC50 ([4]; value in brackets) [lb/acre] | LC50 BB 48 hrs. (Mexican Bean Beetle; Method D foliar test, 48 hrs) | LC50 BB 96 hrs (Mexican Bean Beetle; Method D foliar test, 96 hrs) | LC50 BW 48 hrs (Boll Weevil [3]) [ppm] | LC50 (Mexican Bean Beetle; foliar, 48 hrs, compounds a-r, read-out: LC 50 BB 48 hrs.) [µg/mL] | LC50 (Mexican Bean Beetle; foliar, 96 hrs, compounds a-r, read-out: LC 50 BB 96 hrs.) [µg/mL]
1 | CCOP(=S)(NNP1(=S)N(C)CCN1C)OCC [Compound 3] | I | I | I | I | I | I | 4.5 ppm |  |  |  |  |  |  |  |  |  |  | 
2 | CCOP(=O)(NNP(=S)(OCC)OCC)SCC (stereo not shown) [Compound 21] | I | I | I | I | I | I | 4.7 ppm |  |  |  |  |  |  |  |  |  |  | 
3 | CCCOP(=S)(NNP(=O)(OCC)SCC)OCCC (stereo not shown) [Compound 22] | I | I | I | I | I | I | I | 150 (≈ 412 µM) | 115 (≈ 316 µM) |  |  |  |  |  |  |  |  | 
4 | CCCNP(=S)(NNP(=S)(OCCC)OCCC)OCC (stereo not shown) [Compound 25] | I | I | I | I | I | I | 2.5 ppm | 38 (≈ 101 µM) | 13 (≈ 34.4 µM) |  |  |  |  |  |  |  |  | 
5 | CCOP(=S)(NNP(=S)(OCC)SCC)OCC (stereo not shown) [Compound 26] |  | I | I | I | I | I | 1.1 ppm | 150 (≈ 426 µM) | 150 (≈ 426 µM) | 640 (≈ 1820 µM) |  |  |  |  |  |  |  | 
6 | CCCOP(=S)(NNP(=S)(OCC)SCC)OCCC (stereo not shown) [Compound 27] | I | I | I | I | I |  | 5.8 ppm | 150 (≈ 394 µM) | 150 (≈ 394 µM) |  | 740 |  |  |  |  |  |  | 
7 | CCCOP(=S)(NNP(=S)(OCCC)OCCC)OCC (stereo not shown) [Compound 28] | I | I | I | I | I | I | 1.1 ppm | 62 (≈ 164 µM) | 50 (≈ 132 µM) |  |  | 1.06 | 0.95 |  |  |  |  | 
8 | CCCOP(=S)(NNP(=S)(OCC)OCC)OCC(C)(C)C (stereo not shown) [Compound 34] | I | I | I | I | I | I | 1.1 ppm |  | 52 (≈ 132 µM) |  |  | 0.65 | 0.58 | I |  |  |  | 
9 | CCOP(=S)(NNP(=S)(OC)OC)OCC [Compound 36, reference compound] |  | I | I | I | I | I | 0.90 ppm |  | 600 (≈ 1950 µM) | 79 (≈ 256 µM) |  |  |  | I |  |  |  | 
10 | CCCOP(=S)(NNP(=S)(OC)OC)OCCC [Compound 37, reference compound] |  | I | I | I | I | I | 1.7 ppm | 150 (≈ 446 µM) | 62 (≈ 184 µM) | 450 (≈ 1340 µM) |  |  |  |  |  |  |  | 
11 | CCOP(=S)(NNP(=S)(OCC)OC(C)(C)C(F)(F)F)OCC (stereo not shown) [Compound 40] |  | I | I | I | I | I | 1.0 ppm | 38 (≈ 90.8 µM) | 45 (≈ 108 µM) | 150 (≈ 359 µM) |  |  |  |  |  |  |  | 
12 | COP(=S)(NNP(=S)(OC)OC)OC [Compound 42, reference compound] |  | I | I | I | I | I | I | 600 (≈ 2140 µM) |  | 150 (≈ 535 µM) |  |  |  |  | I |  |  | 
13 | CCOP(=O)(NNP(=S)(OCC)OCC)SC(C)CC (stereo not shown) [Compound 53] | I | I | I | I |  |  | 1.6 ppm |  |  |  | 740 |  |  | I | I | 740 |  | 
14 | CCOP(=O)(NNP(=S)(OCC)OC(C)C)SC(C)CC (stereo not shown) [Compound 55] | I | I | I | I |  |  | 1.1 ppm |  | 17 (≈ 44.9 µM) |  | 70 |  |  | I |  | 740 |  | 
15 | CCOP(=O)(NNP(=S)(OCC)OC(C)CC)SC(C)CC (stereo not shown) [Compound 56] | I | I | I | I | I | I | 1.1 ppm | 380 (≈ 968 µM) | 31 (≈ 79 µM) |  |  |  |  |  |  |  |  | 
16 | CCOP(=S)(NNP(=S)(OCC(C)(C)C)OCC(C)(C)C)OCC [Compound 59, reference compound] | I | I | I | I |  |  | I |  |  |  | 740 |  |  | I | I | 740 |  | 
17 | CCOP(=S)(NNP(=S)(OCC)N1CCCC1)OCC (stereo not shown) [Compound 60] | I | I | I | I | I | I | 1.1 ppm |  |  |  |  |  |  | I | I |  |  | 
18 | CCOP(=S)(NNP1(=S)OCC(C)(C)CO1)OCC [Compound 61] | I | I | I |  |  |  | 1.1 ppm |  |  |  | 740 |  |  | I | I | 740 |  | 
19 | CCOP(=S)(NNP(=S)(OCC)N1CCCCC1)OCC (stereo not shown) [Compound 62] | I | I | I | I | I | I | 1.1 ppm |  |  |  |  |  |  | I | I |  |  | 
20 | CCOP(=S)(NN(C)P(=S)(OCC)OCC)OC(C)C (stereo not shown) [p] |  |  |  |  |  |  |  |  |  |  |  |  |  |  |  |  | 270 (≈ 741 µM) | 78 (≈ 214 µM)
